Patent US12721815B2, “Freeze-dried exosome composition and uses thereof” (AVECIN-Biopharma Oy, priority 2022, dated 2026)

Experiments:
[1] = Lyophilization of exosomes with different cryoprotectants of Table 1 (BCA kit, TEM, NTA); type: physicochemical; details: FIG. 4
Protocol: The protein concentration of isolated exosomes is measured by BCA protein assay kit. Isolated exosomes were characterized by fluorescent staining, Transmission electron microscopy (TEM), and Nanoparticle Tracking Analysis (NTA).
Different cryoprotectant components namely trehalose, mannitol, sorbitol, sucrose, glucose and HA (both low Mw (LW) and high Mw (HMW)), either alone or in combination with HA or glycine (see Table 1) were tested for exosome viability outcome after lyophilization. PBS (290 mOsm/kg) was used as the solvent. The LMW HA used for the examples described herein is LMW HA having a Mw lower than 10 kDa. Isolated exosomes (1 mg/ml) were dissolved in PBS solution and then mixed with cryoprotectant solution in the ratio of 1 part exosomes to 1, 3, 5, or 10 parts of cryoprotectant.
Cryoprotectant solutions were prepared using phosphate-buffered saline (PBS) while the overall osmolality of the lyophilization solutions was maintained at 290 mOsm/kg. Isolated exosomes (10^10-10^11 particle/ml) were suspended in cryoprotectant solution ranging from 1 part of exosome suspension with 3 parts of cryoprotectant solution, to, 3 parts of exosome suspension with 1 part of cryoprotectant solution. Exosomes were lyophilized and then morphology of retrieved exosomes was visualized by TEM while size and concentration were measured by NTA (see FIG. 4). […]

[2] = Freeze-drying apple exosomes using trehalose, LMW HA and their combination (TEM, NTA); type: physicochemical; details: rehydrated after freeze-drying, FIG. 5
Protocol: For TEM imaging, exosomes are fixed with 4.0% paraformaldehyde (PFA) in sodiumphosphate buffer and stained with 2% neutral uranyl acetate with embedding in uranyl acetate and methylcellulose mixture. Exosomes are viewed with transmission EM using Jeol JEM-1400 (Jeol Ltd., Tokyo, Japan) operating at 80 kV. Images are taken with Gatan Orius SC 1000B CCD-camera (Gatan Inc., USA) with 4008×2672 px image size and no binning.
Particle number and size distribution of the exosome is measured by NTA instrument LM14C (NanoSight LTD., London, UK) equipped with blue (404 nm, 70 mW) laser and sCMOS camera. Data are analysed with Nanosight software v3.0, using threshold 5 and gain 10.
To test the preservation of exosome functionality and integrity during the lyophilization process, two cryoprotectants (trehalose and LMW HA) in four different cryoprotectant combinations were used, namely: 50 mM trehalose, 100 mM trehalose, 5% LMW HA, and 50 mM trehalose +2.5% LMW HA. Lyophilization solutions were prepared using PBS. The overall osmolality of the lyophilization solutions was maintained at 290 mOsm/kg. For the freeze-drying experiments, isolated exosomes (10^10-10^11 particle/ml) were suspended in cryoprotectant solution. 5 ml of each sample was prepared. Each solution was divided into 3 polypropylene microcentrifuge tubes, each tube containing 1.2 ml of lyophilization solution supplied with exosomes. […]

human dermal fibroblasts [3] = test: Wound scratch assay (relative wound density); type: cell-based; details: FIG. 6(a)
Protocol: Human dermal fibroblasts are seeded in 96 well plates at 2.4×10^4 cells/well. A cell-free area is then created in a confluent monolayer by physical exclusion through mechanical damage using a […] pipette tip. The culture medium is replaced immediately with a fresh 0.5% EV-free serum-supplemented culture medium containing 100 μg/ml of each exosome preparation tested. Three positions per scratch are imaged for 48 hours. Relative wound density is analysed by measuring the wound area over the healing time. All scratch assays are performed in triplicate.

human dermal fibroblasts [4] = test: MTT assay (fibroblast proliferation); type: cell-based; details: FIG. 6(b)
Protocol: The effect of the exosomes on the proliferation of human dermal fibroblasts was measured by a 3-[4.5-Dimethylthiazol-2-yl]-2.5-diphenyltetrazolium bromide ([…]; Life technologies) assay. Briefly, human dermal fibroblast cells are seeded in 96-well plates at an initial density of 5×10^3 cells/well for 24 h and then are treated with 100 μg/mL of exosomes for 48 hours. Cells are incubated with 0.5 mg/mL of MTT for 3-5 h and then 100 μl DMSO is added to each well and the optical density is measured at 540 nm.

human dermal fibroblasts [5] = test: Collagen production, human collagen type I ELISA kit; type: cell-based; details: incubated 48 h, FIG. 6(c)
Protocol: Also, collagen production was measured using a human collagen type I ELIZA kit. Human dermal fibroblasts were incubated with the exosome samples for 48 h. 100 μl of cell culture media was collected from each sample and incubated with 100 μl of biotinylated detection antibody for 1 h at 37° C. Samples were then washed and incubated with 100 μl of horseradish peroxidase (HRP) conjugate working solution. Stop solution was added and optical density was measured at 450 nm with a Plate Reader.

| Compound | exosome concentration, morphology, aggregation after lyophilization (result in words) [1] | aggregation, size and concentration of lyophilized apple exosomes (result in words) [2] | relative wound density, lyophilised versus non-lyophilised exosomes (result in words) (human dermal fibroblasts [3]) | fibroblast proliferation, lyophilised versus non-lyophilised exosomes (result in words) (human dermal fibroblasts [4]) | collagen production by fibroblasts (result in words) (human dermal fibroblasts [5]) |
| --- | --- | --- | --- | --- | --- |
| OC[C@H]1O[C@H](O[C@H]2O[C@H](CO)[C@@H](O)[C@H](O)[C@H]2O)[C@H](O)[C@@H](O)[C@@H]1O [trehalose, Trehalose] | best results as a single component cryoprotectant | no exosome aggregation | – | – | – |
| Hyaluronic acid (LMW) [hyaluronic acid at low-molecular-weight] | – | – | positive role | positive role | positive role |
